{"source": "patent US20240110004A1", "about": "(Northwestern University, priority 2022, published 2024)", "key": {"HdhQ111 cells [1]": {"test_system": "HdhQ111 cells", "assay": "Cell viability (cell rescue) of serum-starved HdhQ111 cells", "format": "cell-based, mouse", "details": "3 μM with respect to peptide, once a day for 3 days; compared to the vehicle control", "procedure": "FIG. 3A: Cell viability of HV3-TAT peptide and PLPs. Compounds treated to the HdhQ111 cells once a day for 3 days. Concentration was 3 μM with respect to peptide. FIG. 3B: VCP binding assay results for HV3-TAT, P1, P2, and P4.\nCell Viability Methods: In vitro assays were carried out to examine the bioactivity of the PLPs, P1, P2, P3, and P4 and to compare against the known, active HV3-TAT. […] HdhQ111 cells were immortalized from knock-in mice carrying 111 CAG repeats in the mouse Htt gene.\n(§1) To verify that the PLPs retain bioactivity after being exposed to enzymes or serum treatments, the viability of HD mouse mutant striatal HdhQ111 cells was assessed following treatment with HV3-TAT and P1. […] Cells were maintained at 33° C. and 5% CO2 with a relative humidity of 95%. HdQ111 cells were plated in 96-well plates at a density of 5000 per well and then left to attach for 24 h. Cells were treated with HV3-TAT or PLPs at 3 μM with respect to peptide once a day, for 3 days. The medium was replaced every day. After 72 h, cells were washed 3 times with PBS buffer. At this point, 20 μL of CTB reagent in 80 uL of medium was added, and the cells incubated for 3 hours at 37° C. Fluorescence was measured at 590 nm with excitation at 560 nm using a Perkin Elmer EnSpire plate reader. The average background fluorescence of CTB in media without cells was subtracted from the average fluorescence readings of the experimental wells. Viability was calculated as the average background-subtracted signal in a well compared to that of a negative control well (treatment with vehicle or media). Three replicates were performed for each independent sample. 10% DMSO was used as a positive control and untreated cells in complete medium as a negative control. Viability is reported as a percentage of untreated cells."}, "VCP": {"target": "T1, VCP (Homo sapiens, UniProt P55072)", "T1 construct": "purchased Antibodies-online", "T1 sequence (P55072 whole entry, species assumed)": "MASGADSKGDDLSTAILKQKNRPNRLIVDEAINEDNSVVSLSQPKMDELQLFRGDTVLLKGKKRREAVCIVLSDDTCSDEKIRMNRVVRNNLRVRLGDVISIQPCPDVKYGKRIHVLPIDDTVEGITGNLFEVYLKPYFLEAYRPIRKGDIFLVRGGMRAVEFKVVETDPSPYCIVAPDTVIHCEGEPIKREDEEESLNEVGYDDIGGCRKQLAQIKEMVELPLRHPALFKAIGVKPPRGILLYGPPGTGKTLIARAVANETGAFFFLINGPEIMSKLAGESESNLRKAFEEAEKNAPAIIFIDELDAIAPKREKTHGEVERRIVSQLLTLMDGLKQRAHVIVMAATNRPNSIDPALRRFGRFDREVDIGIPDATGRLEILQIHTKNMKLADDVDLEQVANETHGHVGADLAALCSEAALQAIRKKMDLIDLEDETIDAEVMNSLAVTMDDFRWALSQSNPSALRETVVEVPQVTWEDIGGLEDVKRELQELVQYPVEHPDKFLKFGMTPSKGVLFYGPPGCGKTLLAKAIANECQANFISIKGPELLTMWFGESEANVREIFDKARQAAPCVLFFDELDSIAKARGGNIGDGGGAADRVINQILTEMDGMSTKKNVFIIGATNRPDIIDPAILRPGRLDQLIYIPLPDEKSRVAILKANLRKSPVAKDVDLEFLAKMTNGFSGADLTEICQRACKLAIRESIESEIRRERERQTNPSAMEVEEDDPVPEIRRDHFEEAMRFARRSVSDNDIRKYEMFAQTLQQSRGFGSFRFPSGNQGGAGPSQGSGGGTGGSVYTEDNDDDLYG", "assay": "Bio-layer interferometry (BLItz) binding to VCP", "procedure": "FIG. 14A-14B: Biolayer Interferometry (BLItz) measurements from in vitro assay evaluating binding between P1 and VCP (FIG. 14A) and between HV3-TAT peptide and VCP (FIG. 14B). FIG. 14A: lines from top to bottom: 100 μM, 10 μM, and 750 nM. FIG. 14B: lines from top to bottom: 10 μM, 7.5 μM, 5 μM, and 1.25 μM.\nBLI Methods: With cellular VCP engagement verified as discussed in Example 2 (and shown in FIG. 3B), P1 was further assessed for VCP binding via Bio-layer Interferometry (BLI) to further study the interaction compared to HV3-TAT peptide. Binding affinity was measured by using BLItz instrument. The anti-HIS sensor (HIS2) was hydrated before the installation. After the sensor installation to the BLItz instrument, histidine tagged VCP proteins (50 μg/ml in sodium acetate buffer at pH 6.5) were immobilized on the sensor. HV3-TAT and P1 were dissolved in Tris buffer (pH 8.4) with a range of concentrations. Using BLItz instrument, the dissociation constant (KD), on-rate (ka) and off-rate (kd) of each analyte were measured."}, "HdhQ111 cells [2]": {"test_system": "HdhQ111 cells", "assay": "Cell viability in HdhQ111 cells after enzyme or serum pretreatment of the compounds", "format": "cell-based, mouse", "details": "relative to compound without pretreatment, 3 μM with respect to peptide", "procedure": "FIG. 10A-10B: Cell viability in HdhQ111 mouse striatal cells after enzyme pretreatment.\nEach degradation experiment was repeated three times.\nas §1, with “Viability is reported as a percentage of untreated cells.” left out"}, "R6/2 mice": {"test_system": "R6/2 mice", "assay": "mtHtt impact: mitochondrial VCP level and mtHtt aggregation in striatum", "format": "in vivo, mouse", "details": "for VCP level on mitochondria of striatum: ATPB loading control; for mtHtt aggregation in striatum: compared to saline treated", "source_text": "FIG. 34A-34B: Quantification of mitochondrial studies. FIG. 34A depicts quantification of immunoblot results for VCP levels on mitochondrial fractions from striatal extracts of WT and R6/2 mice after treatment (immunoblot not shown). ATPB refers to ATP-ase β subunit. p-value for: WT veh as compared to R62 veh: <0.0001; WT+P1 as compared to R62 veh: <0.0001; R62 veh as compared to R62+HV3-TAT: 0.0001; R62 veh as compared to R62+P1: 0.0184; R62+P1 as compared to R62+HV3-TAT: 0.2663. FIG. 34B depicts quantification of mtHtt aggregation after EM48 staining (stains not shown). p-value for: R62 veh as compared to R62+HV3-TAT: 0.0491; R62 veh as compared to R62+P1: 0.0189; R62+P1 as compared to R62+HV3-TAT: 0.8765.\nIn vivo Efficacy Methods—mtHtt Impact: As the pathophysiological hallmark of HD, the formation of mtHtt aggregates can be observed in striatum of HD mouse models, like R6/2 mice. […] HV3 peptide blocks mtHtt-VCP binding, and inhibits VCP mitochondrial accumulation, which reduce behavioral and neuropathological phenotypes of HD. Mitochondrial level of VCP and mtHtt aggregation were examined to test whether PLP recapitulates the mechanism of HV3 peptide. Mitochondrial fractions of striatum were isolated from mice in each treatment group. Protein levels of VCP on mitochondria were analyzed by western blotting, using ATPB as a loading control for mitochondria. mtHtt aggregation was visualized by immunohistochemical staining by anti-mtHtt antibody."}, "pepsin": {"target": "pepsin (Sus scrofa, UniProt P00791)", "sequence (P00791 60-385)": "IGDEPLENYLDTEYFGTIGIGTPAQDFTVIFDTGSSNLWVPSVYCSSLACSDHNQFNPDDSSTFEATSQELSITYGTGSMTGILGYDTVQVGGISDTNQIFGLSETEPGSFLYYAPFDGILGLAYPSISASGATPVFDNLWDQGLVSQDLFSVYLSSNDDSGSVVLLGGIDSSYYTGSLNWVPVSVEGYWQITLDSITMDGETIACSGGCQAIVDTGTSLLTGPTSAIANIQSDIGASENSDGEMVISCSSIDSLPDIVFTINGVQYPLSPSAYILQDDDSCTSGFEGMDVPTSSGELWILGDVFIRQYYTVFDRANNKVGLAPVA", "protocol": "Stability of PLPs Methods I: For enzyme-induced cleavage experiments, the molar concentration of enzymes was set to 0.1 μM. The concentration of side-chain peptides (having sequence identity of SEQ ID: 1) varied in the range of 50-200 μM. For each enzyme, temperature was set for optimal enzyme activity. In a typical experiment, P1 or HV3-TAT was dissolved in DPBS (pH 7.4) or hydrochloric acid solution (pH 2), to obtain a stock polymer/peptide solution with a peptide concentration of 200 μM. Next, 5 μL of enzyme stock solution (10 μM) was added into 500 μL of the polymer/peptide solution which was subsequently stirred in a preheated oil bath at 37° C. In this case, the molar ratio of peptide substrate to enzymes was 2000:1. During the cleavage, aliquots were taken for HPLC analysis at predetermined time points. Each degradation experiment was repeated three times. Enzyme pretreated P1 was also run on SDS-PAGE and visualized with Coomassie Blue staining."}, "[3]": {"details": "bio-layer interferometry, VCP protein"}}, "note": "Where no end group is shown, it is not given here.", "data": [{"substance": "P1: PLP homopolymer having peptide side chains of SEQ ID: 1 (HVLVMSATRR), made by ROMP of norbornene peptide monomer M1 (also: side chains of polynorbornene homopolymer (PLP, ROMP of norbornene peptide monomer))", "values": [{"measurement": "cell viability", "setting": "HdhQ111 cells [1]", "value": "higher significance than P3"}, {"measurement": "decrease in dissociation constant compared to the HV3-TAT peptide", "setting": "VCP; BLI, VCP", "value": "more than 150 fold"}, {"measurement": "cell viability after enzyme or serum pretreatment of the compound", "setting": "HdhQ111 cells [2]", "value": "did not have any significant change in cell viability"}, {"measurement": "VCP level on mitochondria of striatum", "setting": "R6/2 mice", "value": "inhibited mitochondrial VCP accumulation to a lesser extent"}, {"measurement": "mtHtt aggregation in striatum", "setting": "R6/2 mice", "value": "inhibited mtHtt aggregation"}, {"measurement": "cleavage by pepsin", "setting": "pepsin", "value": "no cleavage observed"}]}, {"substance": "peptide sequence HVLVMCAT (HV3) coupled to the cell penetrating, HIV-derived TAT peptide [HV3-TAT, reference compound]", "values": [{"measurement": "cell viability", "setting": "HdhQ111 cells [1]", "value": "significant increases in cell viability"}, {"measurement": "Kd", "setting": "VCP; BLI, VCP", "value": 14, "unit": "µM"}, {"measurement": "koff", "setting": "VCP; [3]", "value": 0.023, "unit": "s⁻¹"}, {"measurement": "kon", "setting": "VCP; [3]", "value": 1600, "unit": "M⁻¹ s⁻¹"}, {"measurement": "cell viability after enzyme or serum pretreatment of the compound", "setting": "HdhQ111 cells [2]", "value": "significant decrease in cell viability"}, {"measurement": "VCP level on mitochondria of striatum", "setting": "R6/2 mice", "value": "blocked aberrant VCP mitochondrial translocation"}, {"measurement": "mtHtt aggregation in striatum", "setting": "R6/2 mice", "value": "inhibited mtHtt aggregation"}, {"measurement": "percent cleavage by pepsin", "setting": "pepsin; isolated enzyme pepsin, 50 min, 200 μM", "value": 100, "unit": "%"}]}]}
